Non-standard residues stand in square brackets, D forms with d. Residues, ends and D or L forms follow the SMILES beside them. ξ: configuration not given here. *: point of attachment. Acetyl(1,8-naphthalimido) = O=C1c2cccc3cccc(c23)C(=O)N1CC(=O)*; ξY = NC(Cc1ccc(O)cc1)C(=O)O

Type in all cases: physicochemical
Series [1] can be described thus: Fluorescence intensity and emission wavelength at different pH values. The settings on record: for color of fluorescence / emission peak: pH 5; for fluorescence intensity: pH 10 to 6. From the text:
In Experimental Examples 210, 220, 230, 240, 250, 260, 270 and 280, the above water-soluble peptide fluorescence material is respectively placed in environments having a pH value of 10, 9, 8, 7, 6, 5, 4 and 3 for testing. In Experimental Examples 210 to 230, the water-soluble peptide fluorescence material is respectively placed in environments having the pH value of 10, 9 and 8.
Continuing in FIG. 5, which illustrates a fluorescence intensity and an emission wavelength of the water-soluble peptide fluorescence material of formula (III-10) at different pH values. In Experimental Examples 510, 520, 530, 540, 550, 560, 570 and 580, the water-soluble peptide fluorescence material of formula (III-10) is respectively placed in environments having a pH value of 10, 9, 8, 7, 6, 5, 4 and 3 for testing. In Experimental Examples 510 to 560, the water-soluble peptide fluorescence material is placed in environments having the pH value of 10 to 5, and two emission peaks are shown in FIG. 5. […] Then, the pH value is further decrease to 4 (Experimental Example 570) and 3 (Experimental Example 580), and only the emission peak at about 400 nm is remained, so the observed fluorescence has a color of purple in Experimental Examples 570 and 580. Therefore, the water-soluble peptide fluorescence material of formula (III-10) is able to detect and mark locations of acidic cells by change of the color.
Continuing in FIG. 7, which illustrates a fluorescence intensity and an emission wavelength of the water-soluble peptide fluorescence material of formula (III-21) at different pH values. In Experimental Examples 710, 720, 730, 740, 750, 760, 770 and 780, the water-soluble peptide fluorescence material of formula (III-21) is respectively placed in environments having a pH value of 10, 9, 8, 7, 6, 5, 4 and 3 for testing. In Experimental Examples 710 to 750, the water-soluble peptide fluorescence material is placed in environments having the pH value of 10 to 6. […] However, the fluorescence intensity of Experimental Examples 780 is decreased when the pH value is decreased from 4 to 3.
Continuing in FIG. 8, which illustrates a fluorescence intensity and an emission wavelength of the water-soluble peptide fluorescence material of formula (III-22) at different pH values. In Experimental Examples 810, 820, 830, 840, 850, 860, 870 and 880, the water-soluble peptide fluorescence material of formula (III-22) is respectively placed in environments having a pH value of 10, 9, 8, 7, 6, 5, 4 and 3 for testing. In Experimental Examples 810 to 850, the water-soluble peptide fluorescence material is respectively placed in environments having the pH value of 10 to 6. […] In addition, the fluorescence intensity of Experimental Example 860 (pH=5) is 90 times of the fluorescence intensity of Experimental Example 810 […], which represents that the water-soluble peptide fluorescence material has obvious light-emitting interval and easily to identify and detect positions of the acidic cells.
FIG. 10 illustrates a fluorescence intensity and an emission wavelength of the water-soluble peptide fluorescence material of formula (III-23) at different pH values. In Experimental Examples 1010, 1020, 1030, 1040, 1050, 1060, 1070 and 1080, the water-soluble peptide fluorescence material of formula (III-23) is respectively placed in environments having a pH value of 10, 9, 8, 7, 6, 5, 4 and 3 for testing. In Experimental Examples 1010 to 1050, the water-soluble peptide fluorescence material is respectively placed in environments having the pH value of 10 to 6. […] The water-soluble peptide fluorescence material not only provides obvious marker, but also achieves the same effect of the fluorescence at a low concentration, and thereby reduces the costs.
FIG. 11 illustrates a fluorescence intensity and an emission wavelength of the water-soluble peptide fluorescence material of formula (III-27) at different pH values. […]

Series [2] is described as follows: Fluorescence in co-solvents of water and dimethyl sulfoxide (aggregation-induced emission). The note with it: for fluorescence intensity with increase of the volume ratio of water: aggregation-induced emission; for color of observed fluorescence / emission wavelength: water/dimethyl sulfoxide co-solvent. From the text:
Continuing in FIG. 4, which illustrates a fluorescence intensity and an emission wavelength of the water-soluble peptide fluorescence material of formula (III-1) in co-solvents having different proportions of water and dimethyl sulfoxide. In Experimental Example 401, 402, 403, 404, 405, 406, 407, 408, 409, 410 and 411, water respectively has 0, 10, 20, 30, 40, 50, 60, 70, 80, 90 and 100% of a total volume of the co-solvent. […] As such, no significant fluorescence marker is shown, so it is difficult to observe apparent fluorescence visually. […] Given the above, the fluorescence intensity of the water-soluble peptide fluorescence material of formula (III-1) is increased corresponding to the increase of the volume ratio of water, which is also referred as aggregation-induced emission (AIE). In addition, the water-soluble peptide fluorescence material of formula (III-1) has the emission wavelength of about 400 nm, so the observed fluorescence has a color of blue violet.
Continuing in FIG. 9, which illustrates a fluorescence intensity and an emission wavelength of the water-soluble peptide fluorescence material of formula (III-23) in co-solvents having different proportions of water and dimethyl sulfoxide. In Experimental Examples 901, 902, 903, 904, 905, 906, 907, 908, 909 and 910, water respectively has 0, 10, 20, 30, 40, 50, 60, 70, 80 and 90% of a total volume of the co-solvent. […] Given the above, the fluorescence intensity of the water-soluble peptide fluorescence material of formula (III-23) is increased corresponding to the increase of the volume ratio of water and has a phenomenon of aggregation-induced emission in water. In addition, the water-soluble peptide fluorescence material of formula (III-23) has the emission wavelength of about 550 nm, so the observed fluorescence has a color of green.
FIG. 12 illustrates a fluorescence intensity and an emission wavelength of the water-soluble peptide fluorescence material of formula (III-28) in co-solvents having different proportions of water and dimethyl sulfoxide. In Experimental Example 1201, 1202, 1203, 1204, 1205, 1206, 1207, 1208, 1209, 1210 and 1211, water respectively has 0, 10, 20, 30, 40, 50, 60, 70, 80, 90 and 99% of a total volume of the co-solvent. […] As such, no significant fluorescence marker is shown, so it is difficult to observe apparent fluorescence visually. […] Given the above, the fluorescence intensity of the water-soluble peptide fluorescence material of formula (III-28) is increased corresponding to the increase of the volume ratio of water and has a phenomenon of aggregation-induced emission in water. In addition, the water-soluble peptide fluorescence material of formula (III-28) has the emission wavelength of about 400 nm, so the observed fluorescence has a color of violet. FIG. 13 depicts a ratio of the fluorescence intensity between Experimental Examples 1202 to 1211 and Experimental Example 1201, at the emission wavelength of 400 nm.
FIG. 15 illustrates a fluorescence intensity and an emission wavelength of the water-soluble peptide fluorescence material of formula (III-30) in co-solvents having different proportions of water and dimethyl sulfoxide. In Experimental Example 1501, 1502, 1503, 1504, 1505, 1506, 1507, 1508, 1509, 1510 and 1511, water respectively has 0, 10, 20, 30, 40, 50, 60, 70, 80, 90 and 100% of a total volume of the co-solvent. […] As such, no significant fluorescence marker is shown, so it is difficult to observe apparent fluorescence visually. […] Accordingly, the fluorescence intensity of the water-soluble peptide fluorescence material of formula (III-30) is increased corresponding to the increase of the volume ratio of water and has a phenomenon of aggregation-induced emission in water. In addition, the water-soluble peptide fluorescence material of formula (III-30) has the emission wavelength of about 400 to 425 nm, so the observed fluorescence has a color of blue violet. […]

Series [3] in a line: Fluorescence in co-solvents of glycerol and methanol (aggregation-induced emission). From the text:
Continuing in FIG. 6, which illustrates a fluorescence intensity and an emission wavelength of the water-soluble peptide fluorescence material of formula (III-14) in co-solvents having different proportions of glycerol and methanol. In Experimental Example 601, 602, 603, 604, 605, 606, 607, 608, 609 and 610, methanol respectively has 0, 10, 20, 30, 40, 50, 60, 70, 80 and 90% of a total volume of the co-solvent. […] Given the above, the fluorescence intensity of the water-soluble peptide fluorescence material of formula (III-14) is increased corresponding to the increase of the volume ratio of methanol, so the water-soluble peptide fluorescence material of formula (III-14) also has a phenomenon of aggregation-induced emission (AIE) in methanol. In addition, the water-soluble peptide fluorescence material of formula (III-14) has the emission wavelength of about 550 nm, so the observed fluorescence has a color of green.

For `O=C(O)C[C@H](NC(=O)[C@H](CC(=O)O)NC(=O)[C@H](Cc1ccccc1)NC(=O)CN1C(=O)c2cccc3c(N4CCCCC4)ccc(c23)C1=O)C(=O)O` [III-23], in series [1], the color of fluorescence entry is listed as “green”, the emission peak result is “about 525 nm” and the fluorescence intensity entry is given as “low fluorescence intensities”. For the same compound, in series [1] (pH decreased to 4 and 3), the “change of fluorescence intensity” value is “slightly increased”. In series [1] (pH decreased to 5), the “change of fluorescence intensity” value was “significantly increased”. Moreover, in series [2], the “fluorescence intensity with increase of the volume ratio of water” value is given as “increased”, the “color of observed fluorescence” value is on record as “green” and the emission wavelength result is “about 550 nm”. The fluorescence intensity entry in series [2] (water 90% (Experimental Example 910), water 0 to 90% tested) is “highest fluorescence intensity”.

With `O=C(CN1C(=O)c2cccc3c(N4CCCCC4)ccc(c23)C1=O)NC(Cc1ccccc1)C(=O)NC(Cc1ccccc1)C(=O)O` (centres unmarked) [III-14], the “fluorescence intensity with increase of the volume ratio of methanol” value in series [3] (aggregation-induced emission) was “increased”. For the same compound, in series [3] (glycerol/methanol co-solvent), the “color of observed fluorescence” value is “green” and the emission wavelength result is reported as “about 550 nm”. In addition, in series [3] (methanol 90% (Experimental Example 610), methanol 0 to 90% tested), the fluorescence intensity entry is listed as “largest fluorescence intensity”.

With `O=C(CN1C(=O)c2cccc3cccc(c23)C1=O)NC(Cc1ccccc1)C(=O)O` (centres unmarked) [III-1], the “fluorescence intensity with increase of the volume ratio of water” value in series [2] is on record as “increased”. Moreover, the fluorescence intensity entry in series [2] (water 0 to 70% of co-solvent volume) is “low fluorescence intensity”; in series [2] (water 80%), 50 fluorescent units; in series [2] (water 90%), 100 fluorescent units; in series [2] (water 100%), “about 650 fluorescent units”. In addition, the “color of observed fluorescence” value in series [2] is reported as “blue violet”. Moreover, the emission wavelength result in series [2] was “about 400 nm”.

Turning to `O=C(CNC(=O)CNC(=O)CN1C(=O)c2cccc3cccc(c23)C1=O)NCC(=O)NCC(=O)NCC(=O)NC(Cc1ccc(O)cc1)C(=O)O` (centres unmarked) [III-30] ({Acetyl(1,8-naphthalimido)}-GGGGG[ξY]-OH), the “fluorescence intensity with increase of the volume ratio of water” value in series [2] is on record as “increased”. The “ratio of fluorescence intensity Experimental Example 1511 to 1501 (0% water)” value in series [2] (emission wavelength of 410 nm) turned out to be 100 times. The fluorescence intensity result in series [2] (water 0 to 80%) is “lower than 100 fluorescent units”; in series [2] (water 90%), 200 fluorescent units; in series [2] (water 99%), “about 700 fluorescent units”. The “color of observed fluorescence” value in series [2] is reported as “blue violet”.

As for `C[C@H](NC(=O)[C@H](CCC(=O)O)NC(=O)CNC(=O)[C@H](CC(=O)O)NC(=O)[C@H](Cc1ccccc1)NC(=O)CN1C(=O)c2cccc3cccc(c23)C1=O)C(=O)O` [III-28] ({Acetyl(1,8-naphthalimido)}-FDGEA-OH), in series [1], the color of fluorescence result is listed as “purple”, the emission peak entry is reported as “about 400 nm” and the fluorescence intensity entry is on record as “low fluorescence intensities”. Besides, the “change of fluorescence intensity” value in series [1] (pH decreased to 4 and 3) is “significantly increased”. Further, the “change of fluorescence intensity” value in series [1] (pH decreased to 5) is listed as “significantly increased”. Besides, in series [2], the “fluorescence intensity with increase of the volume ratio of water” value is listed as “increased”, the “color of observed fluorescence” value is listed as “violet” and the emission wavelength entry was “about 400 nm”. Moreover, the “ratio of fluorescence intensity Experimental Example 1211 (99% water) to 1201 (0% water)” value in series [2] (emission wavelength of 400 nm) is recorded as 225 times. For the same compound, in series [2] (water 0 to 80%), the fluorescence intensity result was “low fluorescence intensity”. In addition, the fluorescence intensity in series [2] (water 90%) was determined as 150 fluorescent units. For the same compound, the fluorescence intensity result in series [2] (water 99%) is recorded as “about 110 fluorescent units”.

These data come from patent US10222381B2, “Water-soluble peptide fluorescence material” (NATIONAL CHIAO TUNG UNIVERSITY, priority 2015, dated 2019).
